The values that follow come from ChEMBL document CHEMBL5131405, “Inhibition of ALK2 with bicyclic pyridyllactams” (Bioorg Med Chem Lett, 2022).

The target of assay [1] is Activin receptor type-1-like (Homo sapiens, UniProt P37023). As to the kind of experiment: Inhibition of ALK1 (unknown origin). It counts as toxicity.
Assay [2] concerns the target T1, Activin receptor type-1 (Homo sapiens, UniProt Q04771).
T1 sequence (Q04771 whole entry): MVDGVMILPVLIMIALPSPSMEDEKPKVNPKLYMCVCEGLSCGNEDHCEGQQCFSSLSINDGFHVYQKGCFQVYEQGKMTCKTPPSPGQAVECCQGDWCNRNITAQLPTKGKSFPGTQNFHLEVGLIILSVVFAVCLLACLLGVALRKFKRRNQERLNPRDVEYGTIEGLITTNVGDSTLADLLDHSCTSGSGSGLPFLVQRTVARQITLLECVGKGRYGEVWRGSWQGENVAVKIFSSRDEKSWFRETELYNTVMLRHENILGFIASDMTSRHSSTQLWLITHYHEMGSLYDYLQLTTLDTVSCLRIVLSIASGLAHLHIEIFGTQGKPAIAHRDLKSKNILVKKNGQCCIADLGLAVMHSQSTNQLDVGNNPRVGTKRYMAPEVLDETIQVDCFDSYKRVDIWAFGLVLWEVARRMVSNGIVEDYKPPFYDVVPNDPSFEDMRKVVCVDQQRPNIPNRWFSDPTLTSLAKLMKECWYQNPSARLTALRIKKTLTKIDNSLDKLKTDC
Nature of the assay: Inhibition of ALK2 (unknown origin).

The target of assay [3] is T2, Bone morphogenetic protein receptor type-1A (Homo sapiens, UniProt P36894). Nature of the assay: Inhibition of ALK3 (unknown origin).
In assay [4] the target is T1, Activin receptor type-1. Nature of the assay: Inhibition of ALK2 in human HeLa cells assessed as inhibition of SMAD1 phosphorylation. It counts as cell-based.
Assay [5] concerns the target T1, Activin receptor type-1. As to the kind of experiment: Inhibition of human recombinant ALK2 (172 to 499 residues) expressed in baculovirus-infected insect cells by ADP-Glo kinase assay.
For assay [6], the target named is T2, Bone morphogenetic protein receptor type-1A. As to the kind of experiment: Inhibition of human recombinant ALK3 (198 to 525 residues) expressed in baculovirus-infected insect cells by ADP-Glo kinase assay. Background: In ADP-Glo the light output rises with the ADP produced.

T2 sequence (P36894 whole entry): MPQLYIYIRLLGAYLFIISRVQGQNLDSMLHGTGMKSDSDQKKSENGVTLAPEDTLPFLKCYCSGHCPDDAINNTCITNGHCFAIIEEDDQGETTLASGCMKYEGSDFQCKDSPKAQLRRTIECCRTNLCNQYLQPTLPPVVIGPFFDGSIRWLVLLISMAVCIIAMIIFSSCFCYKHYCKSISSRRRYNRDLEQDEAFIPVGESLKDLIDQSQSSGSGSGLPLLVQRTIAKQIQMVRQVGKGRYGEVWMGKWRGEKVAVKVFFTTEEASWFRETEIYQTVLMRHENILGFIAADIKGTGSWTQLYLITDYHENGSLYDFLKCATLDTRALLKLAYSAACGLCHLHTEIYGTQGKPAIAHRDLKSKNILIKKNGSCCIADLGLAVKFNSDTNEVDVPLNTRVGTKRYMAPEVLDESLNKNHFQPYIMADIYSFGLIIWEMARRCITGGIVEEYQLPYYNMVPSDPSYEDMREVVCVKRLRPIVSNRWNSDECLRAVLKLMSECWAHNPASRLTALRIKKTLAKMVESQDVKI
Activin receptor type-1-like, sequence (P37023 whole entry): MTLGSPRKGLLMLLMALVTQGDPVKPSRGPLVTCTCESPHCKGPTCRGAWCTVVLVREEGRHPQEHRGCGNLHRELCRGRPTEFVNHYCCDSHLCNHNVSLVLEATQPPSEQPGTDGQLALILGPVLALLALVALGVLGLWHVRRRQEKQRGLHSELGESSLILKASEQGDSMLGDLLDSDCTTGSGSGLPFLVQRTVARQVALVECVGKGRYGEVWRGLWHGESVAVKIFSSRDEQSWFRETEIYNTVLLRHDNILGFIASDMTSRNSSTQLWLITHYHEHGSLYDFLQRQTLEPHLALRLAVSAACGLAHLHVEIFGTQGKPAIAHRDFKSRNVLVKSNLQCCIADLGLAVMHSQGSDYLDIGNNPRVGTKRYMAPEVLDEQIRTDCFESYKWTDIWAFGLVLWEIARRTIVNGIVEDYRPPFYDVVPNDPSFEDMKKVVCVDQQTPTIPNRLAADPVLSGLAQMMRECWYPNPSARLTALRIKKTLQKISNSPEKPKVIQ

What is called IC50 is the concentration that inhibits the measured activity by half. Take `Nc1ncc(-c2cnn(C3CCNCC3)c2)c2c1C(=O)N(C1C3CC4CC(C3)CC1C4)CC2` (stereo unspecified): the IC50 in assay [1] was 27 nM; on Activin receptor type-1 [2], 5.3 nM; in assay [3], 400 nM; on Activin receptor type-1 [4] it was 415 nM.
For `C[C@@H]1CCCN1Cc1ccc(-c2cnc(N)c(C(=O)N[C@H]3CC[C@](C)(O)CC3)c2)cc1F`, the IC50 stood at 3.6 nM at Activin receptor type-1 [5] and 560 nM in assay [6].
